Where a SMILES comes first, the peptide text is derived from it. Where no end group is shown, it is not given here. The star is where a group is joined. 5FAM = O=C1OC2(c3ccc(O)cc3Oc3cc(O)ccc32)c2ccc(C(=O)*)cc21; Ahx = NCCCCCC(=O)O
What was measured:
[1] = same mice strain, sex, age; cited from earlier work
[2] = cited from earlier work
Description: On the basis of these ante ...

[3] = system: primary human M2-resembling (MCSF + IL4 polarized) macrophages; experiment: In vitro cytotoxicity (MTT), M2-resembling macrophages; type: cell-based; settings: 15-minute incubation at 33 and 100 μmol/L DOX, washed, 48 hours, N = 3 wells
Method: Human peripheral blood mononuclear cells (PBMC) were purified from human blood buffy coat using Ficoll Paque Plus (GE Healthcare, catalog no. 17-1440-02) reagent and CD14^+ microbeads (MACS Miltenyi Biotec, catalog no. 130-050-201) as described previously ([42]). A total of 1.2 × 10^5 cells in 50 μL of RPMI1640 medium were seeded on an FBS-coated 96-well plate. To obtain optimal macrophage attachment and M2 resembling, 50 μL of IL4 (50 ng/mL, BioLegend, catalog no. 574002) and MCSF (50 ng/mL, BioLegend, catalog no. 574802) mixture was added to the wells. The medium was replenished by substituting half of the medium with fresh medium containing IL4 and MCSF every other day for 6 days. To obtain M1-resembling macrophages, monocytes were incubated with M-CSF (50 ng/mL) for 6 days, replenishing every other day with fresh medium containing MCSF and on day 6, 50 μL of MCSF, lipopolysaccharide (LPS, 100 ng/mL, Sigma-Aldrich, catalog no. L4391) and IFNγ (20 ng/mL, BioLegend, catalog no. 570202) was added and incubated overnight. […] After incubation, wells were washed, fresh medium added, and cells incubated for 48 hours at 37°C. […] Absorbance was read at 580 nm using a plate reader (Tecan Sunrise) and the corresponding Magellan 7 program. […] After that, cells were washed 2× with 200 μL of RB and read using BD Accuri 6 plus (BD Biosciences). […]

[4] = system: orthotopic TNBC (4T1 cells); experiment: OximUNO treatment of orthotopic TNBC; type: in vivo, Balb/c mice
Method: Two tumor models were used for treatment studies: the orthotopic TNBC model where 5 × 10^4 4T1 cells in 50 μL of PBS were injected subcutaneously into fourth mammary fat pad; and the experimental metastasis of TNBC model where 2 × 10^5 4T1-GFP cells in 100 μL of PBS were intravenously injected.
A total of 5 × 10^4 4T1 cells in 50 μL of PBS were subcutaneously injected into the fourth mammary fat pad of 8–12 weeks old female Balb/c mice. On day 7, mice were sorted into four groups by tumor volume measured using a digital caliper (Mitutoyo). Tumor volume was calculated on the basis of the formula (W^2 × L)/2, where W is the tumor's width and L is the tumor's length. […] Mouse bodyweight and tumor volumes were monitored every other day. […] CD206 was detected using rat anti-mouse CD206 (dilution 1/200), CD8 using rat anti-mouse CD8 (dilution 1/75 BioLegend, catalog no. 100701), FOXP3 using rat anti-mouse FOXP3 (dilution 1/75, BioLegend, catalog no. 126401) as primary antibodies, Alexa Fluor goat anti-rat 647 (dilution 1/300 for CD206 and 1/200 for CD8, FOXP3,) was used as a secondary antibody for all markers. […]
For H&E staining, 2-μm–thick sections were cut from paraffin-embedded blocks. […] Images were analyzed using the QuPath program (version 0.1.2; ref. [52]). […] Stained heart sections were also scanned using a slide scanner and analysed with the QuPath program. […]

For CSPGAK-OH [mUNO], the “half-life, intraperitoneal versus intravenous administration” value [1] is listed as “substantially longer half-life”.

For `C[C@H](NC(=O)CNC(=O)[C@@H]1CCCN1C(=O)[C@H](CO)NC(=O)[C@H](CS)NC(=O)CCCCCNC(=O)c1ccc2c(c1)C(=O)OC21c2ccc(O)cc2Oc2cc(O)ccc21)C(=O)N[C@@H](CCCCN)C(=O)O` [FAM-mUNO] ({5FAM-Ahx}-CSPGAK-OH), the “degradation of FAM coupled through an amide bond, in serum” value [2] is given as “negligible degradation”.

For `COc1cccc2c1C(=O)c1c(O)c3c(c(O)c1C2=O)C[C@@](O)(C(=O)CO)C[C@@H]3O[C@H]1C[C@H](N)[C@H](O)[C@H](C)O1` [DOX, doxorubicin], the “toxicity (MTT cell viability)” value [3] was “only displayed toxicity in MCSF + IL4 polarized macrophages at 100 μmol/L”, the “CD206 expression in primary tumor” value ([4]; IF, compared with PBS) was “upregulated CD206 expression” and the mouse bodyweight ([4]; i.p., 2 mg/kg of DOX every other day, nine injections) was “significant decrease in mouse bodyweight”.
